Laboratory results taken from patent publication US20260042764A1, “COMPOSITIONS AND METHODS FOR INHIBITION OF KRAS” (TheRas, Inc., priority 2022, published 2026).

Each compound was assayed on KP-2 cells (KRAS G12R) (assay: 3D Cell viability assay in KP-2 cells (Biological Example 6)). Conditions: KP-2 (KRAS G12R) spheroids, 72 hours.
Assay type: cell-based
Experimental: Biological Example 6: 3D Cell viability assay in AsPC-1, SW1900, HPAC, Capan-2, RKN, H358, HCT116, KP-2, H1573, A549, MKN1, and HT1080 cells
The inhibition of cellular viability as a result of test compound treatment in a spheroid assay was measured using the CellTiter-Glow 3D Cell Viability Assay (Promega).
On Day 1, 1000 cells per well were seeded in 150 μL of complete growth media supplemented with 10% fetal bovine serum (FBS) and incubated at 37° C., in the presence of 5% CO2 in 96-well ultra-low attachment microplates (Corning) for 48 hours undisturbed to allow spheroids to form.
Following spheroid formation, cells were treated with compounds diluted in DMSO at 0.25% final DMSO concentration. Compounds were dosed in a 9-point concentration curve with three-fold dilution between concentrations. Cells were incubated in the presence of compound for 72 hours at 37° C., in the presence of 5% CO2.
Following this incubation period, the kit-provided CTG reagent was allowed to equilibrate for 30 minutes at room temperature, 150 μL of equilibrated CTG reagent was added to each well, and the plate was sealed before shaking at 250 rpm for 10 minutes at room temperature to lyse the cells, 150 μL of lysate per well was transferred to a 96-well plate and luminescence was read on a CLARIOstar plate reader.
Data was imported into the Prism software package (Graphpad) and EC50 values were calculated using the log (inhibitor) vs, response—variable slope (Four parameters) model.

Compound	IC50
C[C@@H]1[C@H](N(C)c2nc(OC[C@@]34CCCN3C[C@H](F)C4)nc3c(F)c(-c4ccc(F)c5sc(N)c(C#N)c45)c(C(F)(F)F)cc23)CC(=O)N1C [Compound 440]	≤ 100 nM
N#Cc1cnn2c1CN(c1nc(OC[C@@]34CCCN3C[C@H](F)C4)nc3c(F)c(-c4ccc(F)c5sc(N)c(C#N)c45)c(C(F)(F)F)cc13)CC2 [Compound 392]	100 to 1000 nM
CCC(=O)N1C[C@@H](N(CC)c2nc(OC[C@@]34CCCN3C[C@H](F)C4)nc3c(F)c(-c4ccc(F)c5sc(N)c(C#N)c45)c(C(F)(F)F)cc23)C[C@H]1C [Compound 442]	100 to 1000 nM
CCN(c1nc(OC[C@@]23CCCN2C[C@H](F)C3)nc2c(F)c(-c3ccc(F)c4sc(N)c(C#N)c34)c(C(F)(F)F)cc12)[C@H]1CCN(C(C)=O)C1 [Compound 262]	100 to 1000 nM
CCN(c1nc(OC[C@@]23CCCN2C[C@H](F)C3)nc2c(F)c(-c3ccc(F)c4sc(N)c(C#N)c34)c(C(F)(F)F)cc12)[C@H]1CCN(C(=O)C(C)C)C1 [Compound 332]	≤ 100 nM
CCN(c1nc(OC[C@@]23CCCN2C[C@H](F)C3)nc2c(F)c(-c3ccc(F)c4sc(N)c(C#N)c34)c(C(F)(F)F)cc12)[C@@H]1CCN(C(C)=O)C1 [Compound 268]	100 to 1000 nM
N#Cc1c(N)sc2c(F)ccc(-c3c(C(F)(F)F)cc4c(N5CC6CC(C5)O6)nc(OC[C@@]56CCCN5C[C@H](F)C6)nc4c3F)c12 (single isomer, unassigned) [Compound 275]	≤ 100 nM
